The target of assay [1] is T1, MAGL (Homo sapiens, UniProt Q99685).
T1 sequence (Q99685 1-303): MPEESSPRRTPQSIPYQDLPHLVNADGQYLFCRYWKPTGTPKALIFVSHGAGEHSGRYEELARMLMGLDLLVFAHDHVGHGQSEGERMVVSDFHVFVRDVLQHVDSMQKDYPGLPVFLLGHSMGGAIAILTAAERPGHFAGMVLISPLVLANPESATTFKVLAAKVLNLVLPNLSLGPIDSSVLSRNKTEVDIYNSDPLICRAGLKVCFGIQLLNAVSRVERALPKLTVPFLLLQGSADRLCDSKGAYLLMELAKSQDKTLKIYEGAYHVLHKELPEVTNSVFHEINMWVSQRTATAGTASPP
As to the kind of experiment: In vitro competitive activity-based protein profiling, MAGL, human. To be noted: read-out: MAGL % inh. 1 μM (human).

Assay [2] addresses T2, MAGL (Mus musculus, UniProt O35678).
T2 sequence (O35678 1-303): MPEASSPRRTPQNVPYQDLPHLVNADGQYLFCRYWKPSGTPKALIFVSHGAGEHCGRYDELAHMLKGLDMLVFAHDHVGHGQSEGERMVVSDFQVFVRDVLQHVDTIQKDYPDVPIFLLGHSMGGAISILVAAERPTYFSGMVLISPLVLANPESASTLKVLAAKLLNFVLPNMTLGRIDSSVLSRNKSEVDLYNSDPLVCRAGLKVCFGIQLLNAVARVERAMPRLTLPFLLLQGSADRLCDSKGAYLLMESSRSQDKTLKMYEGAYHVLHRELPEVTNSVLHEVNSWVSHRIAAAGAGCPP
As to the kind of experiment: In vitro competitive activity-based protein profiling, MAGL, mouse. To be noted: read-out: MAGL % inh. 1 μM (mouse).

Assay [3] deals with T3, FAAH (Homo sapiens, UniProt O00519).
T3 sequence (O00519 1-579): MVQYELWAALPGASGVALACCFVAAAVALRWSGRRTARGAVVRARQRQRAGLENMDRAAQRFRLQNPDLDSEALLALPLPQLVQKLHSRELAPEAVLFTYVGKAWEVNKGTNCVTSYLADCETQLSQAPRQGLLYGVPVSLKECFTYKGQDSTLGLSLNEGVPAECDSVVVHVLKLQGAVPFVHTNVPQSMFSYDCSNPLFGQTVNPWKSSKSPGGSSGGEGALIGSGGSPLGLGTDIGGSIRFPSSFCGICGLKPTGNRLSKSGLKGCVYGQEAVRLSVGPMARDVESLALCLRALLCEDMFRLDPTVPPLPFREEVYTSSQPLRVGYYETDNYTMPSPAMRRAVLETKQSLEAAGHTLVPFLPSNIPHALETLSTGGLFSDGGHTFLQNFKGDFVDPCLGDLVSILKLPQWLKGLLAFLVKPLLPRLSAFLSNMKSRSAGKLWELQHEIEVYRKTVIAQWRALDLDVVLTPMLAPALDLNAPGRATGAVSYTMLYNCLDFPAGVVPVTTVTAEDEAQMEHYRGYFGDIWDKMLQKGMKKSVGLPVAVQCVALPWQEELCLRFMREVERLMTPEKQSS
Put plainly: In vitro competitive activity-based protein profiling, FAAH, human. To be noted: for inhibition at 1 µM: read-out: FAAH % inh. 1 μM (human).

Assay [4] deals with T4, FAAH (Mus musculus, UniProt O08914).
T4 sequence (O08914 1-579): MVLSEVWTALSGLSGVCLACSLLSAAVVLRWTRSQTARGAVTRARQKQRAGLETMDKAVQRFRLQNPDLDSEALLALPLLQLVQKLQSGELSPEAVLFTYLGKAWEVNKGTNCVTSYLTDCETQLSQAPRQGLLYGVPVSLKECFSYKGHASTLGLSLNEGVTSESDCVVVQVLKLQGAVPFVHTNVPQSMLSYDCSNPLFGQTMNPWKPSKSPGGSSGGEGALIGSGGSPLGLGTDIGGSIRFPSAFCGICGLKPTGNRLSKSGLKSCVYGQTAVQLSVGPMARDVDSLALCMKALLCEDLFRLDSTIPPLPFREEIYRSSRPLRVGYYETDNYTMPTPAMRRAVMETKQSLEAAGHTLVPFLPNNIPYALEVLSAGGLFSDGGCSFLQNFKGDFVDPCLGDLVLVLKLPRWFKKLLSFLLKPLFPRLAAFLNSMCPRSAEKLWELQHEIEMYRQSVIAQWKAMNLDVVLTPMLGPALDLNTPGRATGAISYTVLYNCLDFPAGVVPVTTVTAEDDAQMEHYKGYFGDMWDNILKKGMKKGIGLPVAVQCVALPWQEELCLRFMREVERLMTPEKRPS
Put plainly: In vitro competitive activity-based protein profiling, FAAH, mouse. To be noted: read-out: FAAH % inh. 1 μM (mouse).

Assay [5] concerns the target T2, MAGL. As to the kind of experiment: Mouse brain proteomes from inhibitor treated mice (oral gavage, sacrificed 4 h after administration). The assay is classed as in vivo. Set-up: mouse brain membrane fraction for mouse assays; from tissue; host or cells: mouse brain (membrane fraction in vitro; brain proteomes of treated C57Bl/6J mice in vivo). Particulars: 5 mg/kg oral gavage, brain proteome 4 h after administration, read-out: MAGL % inh. 5 mg/kg (mouse).

Assay [6] concerns the target T4, FAAH. As to the kind of experiment: Mouse brain proteomes from inhibitor treated mice (oral gavage, sacrificed 4 h after administration), FAAH. It is filed as in vivo. Set-up: mouse brain membrane fraction for mouse assays; from tissue; host or cells: mouse brain (membrane fraction in vitro; brain proteomes of treated C57Bl/6J mice in vivo). Particulars: 5 mg/kg oral gavage, brain proteome 4 h after administration, read-out: FAAH % inh. 5 mg/kg (mouse).

Where only a bound is given, the exact number is not on record here.

In the case of `O=C(O)c1ccn(C(=O)N2CCC3(CCCN3Cc3ccc(C(F)(F)F)cc3Cl)CC2)n1` [Example 76, 1-(1-(2-chloro-4-(trifluoromethyl)benzyl)-1,8-diazaspiro[4.5]decane-8-carbonyl)-1H-pyrazole-3-carboxylic acid], the inhibition at 1 µM in assay [1] was over 75%; in assay [2], over 75%; in assay [3] it was 0 to 25%; in assay [4], 0 to 25%. Moreover, the inhibition at 5 mg/kg in assay [5] and in assay [6] was 0 to 25% each time.

In the case of `CC(=O)NC1CCN(c2cc(C(F)(F)F)ccc2CN2CCN(C(=O)n3ccc(C(=O)O)n3)CC2)CC1` [Example 119, 1-(4-(2-(4-acetamidopiperidin-1-yl)-4-(trifluoromethyl)benzyl)piperazine-1-carbonyl)-1H-pyrazole-3-carboxylic acid], the inhibition at 1 µM was over 75% in assay [1], over 75% in assay [2], 0 to 25% in assay [3] and 0 to 25% in assay [4]. Moreover, the inhibition at 5 mg/kg in assay [5] and in assay [6] was 0 to 25% each time.

By IC50 is commonly meant the concentration that inhibits the measured activity by half. As to `O=C(O)c1nn(C(=O)N2CC3CN(Cc4ccc(N5CCCC5)cc4C(F)(F)F)CC3C2)cc1Cl` (centres unmarked) [Example 140, 4-chloro-1-(5-(4-(pyrrolidin-1-yl)-2-(trifluoromethyl)benzyl)octahydro-pyrrolo[3,4-c]pyrrole-2-carbonyl)-1H-pyrazole-3-carboxylic acid], the inhibition at 1 µM was over 75% in assay [1], over 75% in assay [2], 50 to 75% in assay [3] and 50 to 75% in assay [4]. For the same compound, the IC50 in assay [3] is 100 to 1000 nM. For the same compound, the inhibition at 5 mg/kg in assay [5] and in assay [6] was 0 to 25% throughout.

Take `O=C(O)c1ccn(C(=O)N2CCN(Cc3ccc(C(F)(F)F)cc3N3CC[C@H](F)C3)CC2)n1` [Example 92, (S)-1-(4-(2-(3-fluoropyrrolidin-1-yl)-4-(trifluoromethyl)benzyl)-piperazine-1-carbonyl)-1H-pyrazole-3-carboxylic acid]: the inhibition at 1 µM is over 75% in assay [1], over 75% in assay [2], 0 to 25% in assay [3] and 0 to 25% in assay [4]. Also, in assay [3], the IC50 lay within 1000 to 10000 nM. The inhibition at 5 mg/kg in assay [5] and in assay [6] was 0 to 25% throughout.

As for `O=C(O)c1ccn(C(=O)N2CCC3(CCCN3Cc3cc(Cl)cc(C(F)(F)F)c3)CC2)n1` [Example 86, 1-(1-(3-chloro-5-(trifluoromethyl)benzyl)-1,8-diazaspiro[4.5]decane-8-carbonyl)-1H-pyrazole-3-carboxylic acid], the inhibition at 1 µM is over 75% in assay [1], over 75% in assay [2], 0 to 25% in assay [3] and 0 to 25% in assay [4]. The inhibition at 5 mg/kg in assay [5] and in assay [6] was 0 to 25% throughout.

Regarding `O=C(O)c1ccn(C(=O)N2CCN(Cc3ccc(C(F)(F)F)cc3N3C4CCC3COC4)CC2)n1` [Example 118, 1-(4-(2-(3-oxa-8-azabicyclo[3.2.1]octan-8-yl)-4-(trifluoromethyl)benzyl)piperazine-1-carbonyl)-1H-pyrazole-3-carboxylic acid], the inhibition at 1 µM in assay [1] was over 75%; in assay [2], over 75%; in assay [3], 0 to 25%; in assay [4], 0 to 25%. Besides, the inhibition at 5 mg/kg in assay [5] and in assay [6] was 0 to 25% each time.

In the case of `O=C(O)c1nn(C(=O)N2CCC3(CCN(Cc4cc(Cl)ccc4C(F)(F)F)C3)CC2)cc1C(F)(F)F` [Example 148, 1-(2-(5-chloro-2-(trifluoromethyl)benzyl)-2,8-diazaspiro[4.5]decane-8-carbonyl)-4-(trifluoromethyl)-1H-pyrazole-3-carboxylic acid], the inhibition at 1 µM in assay [1], in assay [2], in assay [3] and in assay [4] was over 75% in each case. In addition, the concentration for half-maximal inhibition (IC50) in assay [3] fell in the range of 100 to 1000 nM. The inhibition at 5 mg/kg in assay [5] was 0 to 25%; in assay [6], 25 to 50%.

As to `O=C(O)c1ccn(C(=O)N2CCN(Cc3ccc(C(F)(F)F)c(-c4nccs4)c3)CC2)n1` [Example 8, 1-(4-(3-(Thiazol-2-yl)-4-(trifluoromethyl)benzyl)piperazine-1-carbonyl)-1H-pyrazole-3-carboxylic Acid], the inhibition at 1 µM in assay [1] is over 75%; in assay [2], over 75%; in assay [3] it was 0 to 25%; in assay [4], 0 to 25%. For the same compound, the inhibition at 5 mg/kg in assay [5] and in assay [6] was 0 to 25% each time.

For `O=C(O)c1ccn(C(=O)N2CCC3(CCN(Cc4cc(Cl)ccc4C(F)(F)F)C3)CC2)n1` [Example 43, 1-(2-(5-chloro-2-(trifluoromethyl)benzyl)-2,8-diazaspiro[4.5]decane-8-carbonyl)-1H-pyrazole-3-carboxylic acid], the inhibition at 1 µM in assay [1] is over 75%; in assay [2], over 75%; in assay [3], 50 to 75%; in assay [4] it was over 75%. In assay [3], this compound returned an IC50 of 1000 to 10000 nM. The inhibition at 5 mg/kg in assay [5] and in assay [6] was 0 to 25% each time.

With `O=C(O)c1ccn(C(=O)N2CCN(Cc3cccc(Oc4ccc(F)cc4)c3)CC2)n1` [Example 51, 1-(4-(3-(4-fluorophenoxy)benzyl)piperazine-1-carbonyl)-1H-pyrazole-3-carboxylic acid], the inhibition at 1 µM in assay [1] was over 75%; in assay [2], over 75%; in assay [3] it was 50 to 75%; in assay [4] it was 0 to 25%. In addition, the IC50 in assay [3] fell in the range of 100 to 1000 nM. In addition, the inhibition at 5 mg/kg in assay [5] and in assay [6] was 0 to 25% throughout.

`O=C(O)c1ccn(C(=O)N2C[C@H]3C[C@H](OCc4cccc(Oc5ccc(Cl)cc5)c4)C[C@H]3C2)n1` [Example 158, 1-(trans-5-((3-(4-chlorophenoxy)benzyl)oxy)octa-hydrocyclopenta[c]pyrrole-2-carbonyl)-1H-pyrazole-3-carboxylic acid]: the inhibition at 1 µM in assay [1], in assay [2], in assay [3] and in assay [4] was over 75% throughout. The inhibition at 5 mg/kg in assay [5] and in assay [6] was 0 to 25% in each case.

For the origin of these results see patent US10266497B2 (ABIDE THERAPEUTICS, INC., priority 2017, dated 2019).
